# According to ChEMBL document CHEMBL5506004, “Optimizing drug-like properties of selective butyrylcholinesterase inhibitors for cognitive improvement: Enhancing aqueous solubility by disrupting molecular plane” (Eur J Med Chem, 2024):
# The source made the active and inactive calls. The rule behind the calls is not given here.
# Legend:
# [1] = Cmax in brain of ICR mouse at 10 mg/kg, po measured for 10 to 480 mins by spectroscopy; type: ADME, organism-based; conditions: time 10-480 min
# BV-2 = assay: Cytotoxicity against mouse BV-2 cells assessed as survival rate at 100 uM incubated for 24 hrs by MTT assay relative to control; type: functional; conditions: read-out: Survival
# Mus musculus [2] = assay: Cognitive enhancing effect in Amyloid beta (1 to 42)-treated ICR mouse assessed as spontaneous decision behaviour at 10 mg/kg, po administered daily measured after 13 days by Y-maze test; type: functional, organism-based; conditions: time 13.0 day
# HT-22 [3] = assay: Neuroprotective activity against glutamate-induced excitotoxicity in mouse HT-22 cells assessed as cell viability at 1 to 10 uM pretreated for 1 hr followed by glutamate addition measured after 24 hrs by MTT assay; type: functional, cell-based; conditions: dose 1-10 µM, time 25.0 hrs
# Cholinesterase [4] = target: Cholinesterase (Equus caballus, UniProt P81908); assay: Inhibition of horse serum BChE using BTC iodide as substrate preincubated for 5 mins followed by substrate addition measured after 2 mins by Ellman's method
# Cholinesterase [5] = target: T1, Cholinesterase (Homo sapiens, UniProt P06276); assay: Non-competitive inhibition of human BChE
# SH-SY5Y = assay: Cytotoxicity against human SH-SY5Y cells assessed as survival rate incubated for 24 hrs by MTT assay; type: functional, cell-based
# Cytochrome P450 1A2 = target: T2, Cytochrome P450 1A2 (Homo sapiens, UniProt P05177); assay: Inhibition of CYP1A2 in human liver microsomes at 10 uM in presence of NADPH-regenerating system by LC-MS/MS analysis; type: ADME, Microsome
# T2 sequence (P05177 whole entry): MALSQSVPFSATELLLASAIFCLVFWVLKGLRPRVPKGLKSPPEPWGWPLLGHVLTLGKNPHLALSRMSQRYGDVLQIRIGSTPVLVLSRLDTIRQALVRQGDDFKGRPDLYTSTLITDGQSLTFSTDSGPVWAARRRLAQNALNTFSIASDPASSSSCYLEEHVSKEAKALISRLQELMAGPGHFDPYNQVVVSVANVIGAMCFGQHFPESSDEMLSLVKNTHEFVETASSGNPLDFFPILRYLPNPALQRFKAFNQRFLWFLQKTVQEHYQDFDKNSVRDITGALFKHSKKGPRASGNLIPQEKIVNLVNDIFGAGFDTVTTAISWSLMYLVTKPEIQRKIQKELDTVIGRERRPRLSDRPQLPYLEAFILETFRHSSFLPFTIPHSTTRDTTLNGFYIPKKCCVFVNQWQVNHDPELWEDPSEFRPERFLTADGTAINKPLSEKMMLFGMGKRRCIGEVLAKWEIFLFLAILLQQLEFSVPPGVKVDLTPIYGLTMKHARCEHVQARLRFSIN
# [6] = AUC (0 to t) in plasma of ICR mouse at 10 mg/kg, po measured for 10 to 480 mins by spectroscopy; type: ADME, organism-based; conditions: time 10-480 min
# PC-12 [7] = assay: Neuroprotective activity in rat PC12 cells assessed as cell viability pretreated for 2 hrs followed by H2O2 addition measured after 24 hrs by MTT assay; type: functional, cell-based; conditions: time 26.0 hrs
# [8] = target: Amyloid-beta precursor protein (Mus musculus) (UniProt P12023); assay: In vivo inhibition of Amyloid beta (1 to 42) self-aggregation in brain of Amyloid beta (1 to 42)-treated ICR mouse at 10 mg/kg, po administered daily for 12 days; type: functional, organism-based; conditions: time 12.0 day
# [9] = AUC (0 to infinity) in Sprague-Dawley rat at 10 mg/kg, po measured for 1 to 1440 mins by LC-MS/MS analysis; type: ADME, organism-based; conditions: in vivo, time 1-1440 min
# Cholinesterase [10] = target: T1, Cholinesterase; assay: Inhibition of human BChE using BTC iodide as substrate preincubated for 5 mins followed by substrate addition measured after 2 mins by Ellman's method
# [11] = Ratio of Cmax in brain to plasma in ICR mouse at 10 mg/kg, po measured for 10 to 480 mins by spectroscopy; type: ADME, organism-based; conditions: time 10-480 min
# [12] = Toxicity in Amyloid beta (1 to 42)-treated ICR mouse assessed as drug tolerance at 10 mg/kg, po administered daily for 12 days; type: organism-based; conditions: in vivo, 288 h, time 12 day
# [13] = Permeability of compound at 50 ug/ml incubated for 18 hrs by PAMPA; type: ADME; conditions: dose 50 µg/ml, read-out: permeability
# [14] = AUC (0 to t) in Sprague-Dawley rat at 10 mg/kg, po measured for 1 to 1440 mins by LC-MS/MS analysis; type: ADME, organism-based; conditions: in vivo, time 1-1440 min
# CYP2D6 = CYP2D6 (Homo sapiens, UniProt P10635); assay: Inhibition of CYP2D6 in human liver microsomes at 10 uM in presence of NADPH-regenerating system by LC-MS/MS analysis relative to control; type: ADME, Microsome
# HT-22 [15] = assay: Cytotoxicity against mouse HT-22 cells assessed as survival rate at 100 uM incubated for 24 hrs by MTT assay relative to control; type: functional; conditions: read-out: Survival
# [16] = Oral bioavailability in Sprague-Dawley rat at 10 mg/kg measured for 1 to 1440 mins by LC-MS/MS analysis; type: ADME, organism-based; conditions: in vivo, time 1-1440 min
# [17] = Metabolic stability in human liver microsomes assessed as compound metabolism at 2 uM measured for 60 mins by LC-MS/MS analysis; type: ADME, Microsome; conditions: read-out: Drug metabolism
# [18] = Half life in Sprague-Dawley rat at 10 mg/kg, po measured for 1 to 1440 mins by LC-MS/MS analysis; type: ADME, organism-based; conditions: in vivo, time 1-1440 min
# Mus musculus [19] = assay: Downregulation of Amyloid beta (1 to 42) level in brain of Amyloid beta (1 to 42)-treated ICR mouse at 10 mg/kg, po administered daily for 12 days; type: functional, organism-based; conditions: time 12.0 day
# [20] = Tmax in Sprague-Dawley rat at 10 mg/kg, iv measured for 1 to 1440 mins by LC-MS/MS analysis; type: ADME, organism-based; conditions: in vivo, time 1-1440 min
# PC-12 [21] = assay: Cytotoxicity against rat PC12 cells assessed as survival rate at 100 uM incubated for 24 hrs by MTT assay relative to control; type: functional; conditions: read-out: Survival
# [22] = Acute toxicity in ICR mouse assessed as animal death at 1 g/kg, IG; conditions: in vivo, po, 1000 mg/kg
# [23] = Solubility of compound in FaSSIF incubated for 24 hrs by HPLC analysis; type: ADME
# [24] = Tmax in Sprague-Dawley rat at 10 mg/kg, po measured for 1 to 1440 mins by LC-MS/MS analysis; type: ADME, organism-based; conditions: in vivo, time 1-1440 min
# [25] = Cmax in Sprague-Dawley rat at 10 mg/kg, iv measured for 1 to 1440 mins by LC-MS/MS analysis; type: ADME, organism-based; conditions: in vivo, time 1-1440 min
# CYP2C19 = CYP2C19 (Homo sapiens, UniProt P33261); assay: Inhibition of CYP2C19 in human liver microsomes at 10 uM in presence of NADPH-regenerating system by LC-MS/MS analysis relative to control; type: ADME, Microsome
# [26] = AUC (0 to t) in brain of ICR mouse at 10 mg/kg, po measured for 10 to 480 mins by spectroscopy; type: ADME, organism-based; conditions: time 10-480 min
# [27] = Cmax in Sprague-Dawley rat at 10 mg/kg, po measured for 1 to 1440 mins by LC-MS/MS analysis; type: ADME, organism-based; conditions: Sprague-Dawley, in vivo, time 1-1440 min, read-out: Cmax
# [28] = Cmax in plasma of ICR mouse at 10 mg/kg, po measured for 10 to 480 mins by spectroscopy; type: ADME, organism-based; conditions: time 10-480 min
# T1 sequence (P06276 whole entry): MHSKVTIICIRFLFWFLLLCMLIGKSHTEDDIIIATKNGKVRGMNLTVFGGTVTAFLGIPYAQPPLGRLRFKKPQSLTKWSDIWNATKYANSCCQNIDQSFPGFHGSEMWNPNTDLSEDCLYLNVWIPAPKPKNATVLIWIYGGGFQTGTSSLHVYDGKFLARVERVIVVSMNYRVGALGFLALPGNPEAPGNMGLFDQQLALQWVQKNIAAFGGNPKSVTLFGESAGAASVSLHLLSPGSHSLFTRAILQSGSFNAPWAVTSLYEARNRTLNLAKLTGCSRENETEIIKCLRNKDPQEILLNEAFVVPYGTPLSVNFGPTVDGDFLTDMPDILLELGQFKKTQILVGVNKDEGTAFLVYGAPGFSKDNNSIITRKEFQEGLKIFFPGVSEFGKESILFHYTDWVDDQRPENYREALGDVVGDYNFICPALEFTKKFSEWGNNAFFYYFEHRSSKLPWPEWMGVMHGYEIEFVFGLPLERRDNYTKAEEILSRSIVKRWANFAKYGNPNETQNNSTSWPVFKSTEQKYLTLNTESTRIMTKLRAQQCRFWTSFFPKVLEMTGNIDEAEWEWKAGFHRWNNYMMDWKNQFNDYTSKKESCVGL
# Chain of Amyloid-beta precursor protein (Mus musculus) (P12023 whole entry): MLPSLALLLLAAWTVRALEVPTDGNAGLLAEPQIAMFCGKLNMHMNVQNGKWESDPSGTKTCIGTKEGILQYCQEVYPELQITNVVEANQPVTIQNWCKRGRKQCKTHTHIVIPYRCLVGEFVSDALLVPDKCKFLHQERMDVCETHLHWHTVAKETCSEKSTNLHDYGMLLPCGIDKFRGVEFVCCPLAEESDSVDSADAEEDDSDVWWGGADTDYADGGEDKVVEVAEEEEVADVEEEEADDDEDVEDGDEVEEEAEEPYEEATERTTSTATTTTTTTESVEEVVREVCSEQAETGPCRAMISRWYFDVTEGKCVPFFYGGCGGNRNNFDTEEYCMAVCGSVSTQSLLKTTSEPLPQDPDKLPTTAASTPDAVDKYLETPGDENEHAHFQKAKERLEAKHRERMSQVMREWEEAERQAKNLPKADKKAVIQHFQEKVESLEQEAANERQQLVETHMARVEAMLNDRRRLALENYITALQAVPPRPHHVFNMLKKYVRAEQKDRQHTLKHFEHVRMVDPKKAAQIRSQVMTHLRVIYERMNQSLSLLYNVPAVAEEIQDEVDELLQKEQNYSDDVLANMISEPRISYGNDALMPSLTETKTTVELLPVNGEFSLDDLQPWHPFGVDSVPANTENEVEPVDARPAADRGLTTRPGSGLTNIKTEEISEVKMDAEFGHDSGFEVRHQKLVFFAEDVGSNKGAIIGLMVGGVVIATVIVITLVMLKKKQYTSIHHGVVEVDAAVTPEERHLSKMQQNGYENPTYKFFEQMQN
# Chain of CYP2C19 (P33261 whole entry): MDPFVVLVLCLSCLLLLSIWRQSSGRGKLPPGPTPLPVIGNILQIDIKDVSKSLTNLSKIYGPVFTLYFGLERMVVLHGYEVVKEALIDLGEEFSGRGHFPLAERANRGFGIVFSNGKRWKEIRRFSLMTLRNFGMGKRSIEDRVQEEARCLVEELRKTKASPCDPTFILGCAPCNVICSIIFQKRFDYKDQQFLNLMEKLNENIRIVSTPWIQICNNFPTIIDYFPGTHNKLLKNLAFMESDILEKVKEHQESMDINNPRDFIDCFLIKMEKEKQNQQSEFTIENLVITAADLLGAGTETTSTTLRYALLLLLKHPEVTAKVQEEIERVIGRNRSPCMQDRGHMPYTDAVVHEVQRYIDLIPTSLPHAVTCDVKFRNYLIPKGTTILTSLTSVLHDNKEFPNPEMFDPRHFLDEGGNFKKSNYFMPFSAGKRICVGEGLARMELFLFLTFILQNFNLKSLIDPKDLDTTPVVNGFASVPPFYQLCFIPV
# Chain of CYP2D6 (P10635 whole entry): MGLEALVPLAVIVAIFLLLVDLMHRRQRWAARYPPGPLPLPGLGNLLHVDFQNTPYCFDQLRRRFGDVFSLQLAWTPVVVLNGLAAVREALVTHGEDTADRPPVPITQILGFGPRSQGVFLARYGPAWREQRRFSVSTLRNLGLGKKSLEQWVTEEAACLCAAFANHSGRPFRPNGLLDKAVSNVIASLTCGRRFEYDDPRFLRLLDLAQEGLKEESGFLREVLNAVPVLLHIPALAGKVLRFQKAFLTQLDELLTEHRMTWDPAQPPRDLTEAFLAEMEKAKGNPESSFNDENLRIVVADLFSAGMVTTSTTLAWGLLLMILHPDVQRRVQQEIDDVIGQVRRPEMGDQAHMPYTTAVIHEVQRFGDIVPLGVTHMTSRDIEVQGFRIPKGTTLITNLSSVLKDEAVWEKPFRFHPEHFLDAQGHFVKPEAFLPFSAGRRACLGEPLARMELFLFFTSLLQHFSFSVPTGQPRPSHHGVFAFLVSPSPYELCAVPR
# Chain of Cholinesterase (Equus caballus, UniProt P81908) (P81908 whole entry): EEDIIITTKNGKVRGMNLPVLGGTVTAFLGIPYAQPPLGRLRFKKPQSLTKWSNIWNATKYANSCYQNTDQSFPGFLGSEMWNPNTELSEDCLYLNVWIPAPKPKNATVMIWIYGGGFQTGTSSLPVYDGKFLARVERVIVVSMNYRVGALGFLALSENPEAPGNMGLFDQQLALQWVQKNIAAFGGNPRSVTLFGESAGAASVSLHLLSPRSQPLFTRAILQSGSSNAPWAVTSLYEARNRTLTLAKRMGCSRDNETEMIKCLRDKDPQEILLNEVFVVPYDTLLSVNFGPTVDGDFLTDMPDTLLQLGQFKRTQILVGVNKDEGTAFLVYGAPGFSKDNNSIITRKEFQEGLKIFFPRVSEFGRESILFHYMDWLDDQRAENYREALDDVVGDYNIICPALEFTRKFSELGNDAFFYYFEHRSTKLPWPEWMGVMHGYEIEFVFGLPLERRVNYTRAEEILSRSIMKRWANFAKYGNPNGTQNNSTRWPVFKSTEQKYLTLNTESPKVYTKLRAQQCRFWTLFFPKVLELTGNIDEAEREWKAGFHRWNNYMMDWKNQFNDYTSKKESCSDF
smiles,measurement,setting,value
Nc1nonc1-c1nc2ccccc2n1CC(=O)Nc1ccc(CCN2CCOCC2)cc1,Cmax,[1],209 ng/mL
same,viability at 100 µM,BV-2,66.5%
same,Activity,Mus musculus [2],Active
same,Activity,HT-22 [3],Active
same,IC50,Cholinesterase [4],0.0114 µM
same,inhibition,Cholinesterase [5],Active
same,IC50,SH-SY5Y,89.8 µM
same,inhibition (INH),Cytochrome P450 1A2,Not Active
same,AUC(0-t),[6],826 ng·h/mL
same,Activity,PC-12 [7],Dose-Dependent Effect
same,inhibition,[8],inactive
same,AUC(0-inf),[9],1730 ng·h/mL
same,IC50,Cholinesterase [10],0.0481 µM
same,Kp,[11],0.15
same,Activity,[12],Non-Toxic
same,"Papp at 18 h, 50 ug/ml",[13],6.64 ×10⁻⁶ cm/s
same,AUC(0-t),[14],1440 ng·h/mL
same,inhibition at 10 µM,CYP2D6,0.89%
same,viability at 100 µM,HT-22 [15],80.7%
same,bioavailability,[16],48.2%
same,"metabolised at 1 h, 2 µM",[17],< 15%
same,half-life,[18],406 min
same,Activity,Mus musculus [19],Active
same,Tmax,[20],3 min
same,viability at 100 µM,PC-12 [21],75.5%
same,Activity,[22],Non-Toxic
same,solubility at 24 h,[23],3.28 mM
same,Tmax,[24],23.3 min
same,Cmax,[25],4610 ng/mL
same,inhibition at 10 µM,CYP2C19,9.19%
same,AUC(0-t),[26],268 ng·h/mL
same,Cmax,[27],1060 ng/mL
same,Cmax,[28],1390 ng/mL
